Measured values as given in patent US11246961B2, “Engineered scaffolds for vascularized tissue repair” (The Regents of the University of California, priority 2016, dated 2022).
Ends that are not written are not given here.

Experiments:
THP-1 monocytes [1] = assay: flow cytometry ligand-cell binding, THP-1 monocytes; conditions: biotinylated ligand 1 μM
Procedure: (§1) FIG. 10 presents flow cytometry data from an assay of binding affinity of LXW7 and GRGD (SEQ ID NO: 1) to different cell types. Tests included EPCs/ECs from different sources, including HECFCs (A), HCAECs (B), HMVECs (C), and THP-1 monocytes (D), Platelets (E), as well as K562 cells engineered to highly express αvβ3 (αvβ3-K562, F), and αIIbβ3 (αIIbβ3-K562, G). Cells were incubated with the LXW7-bio, GRGD-bio (SEQ ID NO: 1), or D-Biotin peptide and subsequently incubated with streptavidin-phycoerythrin. Flow cytometry analysis was performed to determine the binding affinity of the ligands. Samples treated with D-biotin were used as negative controls.
(§2) LXW7-bio (1 μM) was incubated with 3×10^5 HECFCs, HCAECs, HMVECs, αvβ3-K562 and αIIbβ3-K562 cells and THP-1 monocytes and 1×10^8 platelets in binding buffer (HEPES containing 10% FBS) on ice for 30 minutes. The samples were washed three times with DPBS containing 1% FBS and incubated with 2 μg/ml of streptavidin-phycoerythrin on ice for 30 minutes and then washed with DPBS. Samples were analyzed on a BD Fortessa LSR Cell Analyzer and further data analysis and gating were performed using FlowJo software (Treestar, Inc.).

platelets [2] = assay: flow cytometry ligand-cell binding, platelets; conditions: biotinylated ligand 1 μM
Procedure: as §1, §2

integrin αvβ3 = target: T1, integrin αvβ3 (Homo sapiens, UniProt P05106+P06756); assay: flow cytometry ligand-cell binding, αvβ3-K562 cells; conditions: K562 cells highly expressing integrin αvβ3
T1 construct: expressed in transfected cells; host or cells: K562 myeloid leukemia cells (αvβ3-K562), provided by Dr. Yoshikazu Takada
Procedure: as §1
(§3) Human coronary artery endothelial cells (HCAECs) were purchased from ATCC. Human cardiac microvascular endothelial cells (HMVECs) were purchased from Lonza. THP-1 monocytes were obtained from Dr. Pamela Lein (University of California, Davis). […]
as §2, with “The samples were washed three times with DPBS containing 1% FBS and incubated with 2 μg/ml of streptavidin-phycoerythrin on ice for 30 minutes and then washed with DPBS.” left out

integrin αIIbβ3 = target: T2, integrin αIIbβ3 (Homo sapiens, UniProt P05106+P08514); assay: flow cytometry ligand-cell binding, αIIbβ3-K562 cells; conditions: K562 cells highly expressing αIIbβ3
T2 construct: expressed in transfected cells; host or cells: K562 myeloid leukemia cells (αIIbβ3-K562), provided by Dr. Jennifer Cochran (Stanford University)
Procedure: as §1, §3
as §2, with “The samples were washed three times with DPBS containing 1% FBS and incubated with 2 μg/ml of streptavidin-phycoerythrin on ice for 30 minutes and then washed with DPBS.” left out

HCAECs [3] = assay: attachment assay on ligand treated culture surfaces, HCAECs; type: cell-based, human; conditions: avidin + biotinylated ligand 2 μM; 10 minutes
Text: Ligands LXW7, LXY30, and LLP2A were synthesized as in U.S. Pat. No. 9,073,974. Biotinylated LXW7 (LXW7-bio) and biotinylated GRGD (GRGD-bio) (SEQ ID NO: 1) were synthesized using established solid phase peptide synthesis protocols (Xiao et al. (2010) Mol Cancer Therapeutics 9:2714). Peptide-bio was designed to have biotin attached to the side chain of Lys, with two hydrophilic linkers between peptide and Lys (biotin). To modify culture surface with ligands, target culture wells in a 24-well plate were coated with 500 μL of 20 μg/mL Avidin (Thermo Fisher Scientific), and incubated for 1 hour at 37° C. Avidin coated wells were rinsed three times with DPBS and were treated with 500 μL molar equivalents (2 μM) of D-biotin (Thermo Fisher Scientific), LXW7-bio, or GRGD-bio (SEQ ID NO: 1). After 1 hour, the wells were washed three times with DPBS and blocked with 1% bovine serum albumin (BSA; Thermo Fisher Scientific) for 1 hour. After the wells were rinsed three times with DPBS, for cell attachment assay, 5×10^4 HCAECs and THP-1 monocytes suspended in the respective maintenance medium were added to the wells and incubated for 10 minutes or 16 hours at 37° C., 5% CO2, respectively. After each time point the wells were washed three times with DPBS, and the adhered cells were fixed in 10% formalin (Azer Scientific) for 20 minutes. For platelets attachment assay, the PRP was centrifuged, and the platelet pellet was resuspended in 1% BSA with 2 mM CaCl2 and 1 mM MgCl2 to achieve a final concentration of 1×10^8 platelets/mL, added to the wells at a density of 5×10^7 platelets/cm^2, and incubated for 16 hours at 37° C., 5% CO2. The wells were washed three times with DPBS, and the adhered cells were fixed in 10% formalin for 20 min. The HCAECs wells were washed with DPBS again and blocked for 1 hour with 1% BSA. An additional wash was performed, and the plate was incubated overnight with mouse anti-PECAM-1 antibody (1:100; Abcam) in 1% BSA at 4° C. […] Five images were randomly taken from each sample and quantification of images was performed using the Image J software (NIH).

THP-1 monocytes [4] = assay: attachment assay on ligand treated culture surfaces, THP-1 monocytes; type: cell-based; conditions: 16 hours
Text: (§4) Ligands LXW7, LXY30, and LLP2A were synthesized as in U.S. Pat. No. 9,073,974. Biotinylated LXW7 (LXW7-bio) and biotinylated GRGD (GRGD-bio) (SEQ ID NO: 1) were synthesized using established solid phase peptide synthesis protocols (Xiao et al. (2010) Mol Cancer Therapeutics 9:2714). Peptide-bio was designed to have biotin attached to the side chain of Lys, with two hydrophilic linkers between peptide and Lys (biotin). To modify culture surface with ligands, target culture wells in a 24-well plate were coated with 500 μL of 20 μg/mL Avidin (Thermo Fisher Scientific), and incubated for 1 hour at 37° C. Avidin coated wells were rinsed three times with DPBS and were treated with 500 μL molar equivalents (2 μM) of D-biotin (Thermo Fisher Scientific), LXW7-bio, or GRGD-bio (SEQ ID NO: 1). After 1 hour, the wells were washed three times with DPBS and blocked with 1% bovine serum albumin (BSA; Thermo Fisher Scientific) for 1 hour. After the wells were rinsed three times with DPBS, for cell attachment assay, 5×10^4 HCAECs and THP-1 monocytes suspended in the respective maintenance medium were added to the wells and incubated for 10 minutes or 16 hours at 37° C., 5% CO2, respectively. […] Five images were randomly taken from each sample and quantification of images was performed using the Image J software (NIH).

platelets [5] = assay: platelets attachment assay on ligand treated culture surfaces; type: cell-based; conditions: 16 hours
Text: as §4

HECFCs = assay: on-bead whole cell binding assay, HECFCs; type: cell-based, human; conditions: 2 hours incubation
Text: Endothelial colony forming cells (ECFCs), a subtype of EPCs also often referred to as outgrowth endothelial cells (OECs), were isolated from human umbilical cord blood as previously described (Williams et al. (2015) PloS One 10:e0123437; Ingram et al. (2004) Blood 104:2752). Human umbilical cord blood (10 U heparin/mL blood) was obtained from the UC Davis Umbilical Cord Blood Collection Program (UCBCP) and diluted 1:1 with Phosphate-buffered saline (PBS), without calcium and magnesium, pH 7.2 (Hyclone). Fifteen mL Ficoll-Paque PLUS (Amersham Biosciences) was laid at the bottom of 20 mL diluted blood and centrifuged at 2000 rpm for 30 minutes at room temperature. The hazy layer of mononuclear cells (MNCs) that seat at the interface between the Ficoll and serum was collected and dispensed into 50-mL conical tube containing 10 mL EBM-2 (Lonza) and centrifuged at 1500 rpm for 10 minutes at room temperature. The supernatant was carefully aspirated and the pellets were treated with red blood cell lysis buffer (eBioscience, Inc.) and then sorted by CD34 microbead magnetic sorting (Miltenyi Biotec GmbH) as per manufacturer's instructions. The CD34^+ cells were seeded on rat-tail collagen I (BD Biosciences Discovery) coated tissue culture plates and cultured in EGM-2 media (Lonza). After 24 h, non-adherent cells were removed and the media was changed daily to day 7 and every other day thereafter. ECFC-derived colonies appeared between day 4 and day 7 of culture with s typical endothelial cobblestone pattern. Individual colonies were isolated and expanded and allowed to grow to 80% to 90% confluency before first passage. ECFCs were used between P3 and P5 for all experiments.
HECFCs, HCAECs, HMVECs and THP-1 monocytes were cultured in their respective growth medium as described in Example 1. For cell bead-binding assay, 6×10^5 HECFCs, HCAECs, HMVECs or THP-1 monocytes in 2 mL of their respective culture medium were added to an ultra-low attachment 35-mm petri dish (Corning Incorporated) followed by resin beads (Lam et al. (1991) Nature 354:82). […]

HCAECs [6] = assay: on-bead whole cell binding assay, HCAECs; type: cell-based, human; conditions: 2 hours incubation
Text: Human coronary artery endothelial cells (HCAECs) were purchased from ATCC. Human cardiac microvascular endothelial cells (HMVECs) were purchased from Lonza. THP-1 monocytes were obtained from Dr. Pamela Lein (University of California, Davis). The myeloid leukemia K562 cells that have been transfected with human integrin αvβ3 gene (αvβ3-K562 cells) were provided by Dr. Yoshikazu Takada and the K562 cells transfected with human integrin αIIbβ3 gene (αIIb3-K562 cells) were provided Dr. Jennifer Cochran (Stanford University)
HECFCs, HCAECs, HMVECs and THP-1 monocytes were cultured in their respective growth medium as described in Example 1. For cell bead-binding assay, 6×10^5 HECFCs, HCAECs, HMVECs or THP-1 monocytes in 2 mL of their respective culture medium were added to an ultra-low attachment 35-mm petri dish (Corning Incorporated) followed by resin beads (Lam et al. (1991) Nature 354:82). The dishes were incubated in a shaking incubator at 37° C., 5% CO2 for various time points at 40 rpm. For platelet bead-binding assay, the platelets isolated as described in Example 1 were added to an ultra-low attachment 35-mm petri dish and incubated with the resin beads in the shaking incubator as described for the cell-bead binding assy. Phase contrast images were taken at different time points using an Olympus IX81 microscope.
Three integrin-targeting ligands—LXY30 (α3β1), LLP2A (α4β1) and LXW7 (αvβ3)—were tested for their binding activities to EPCs and ECs. […] LXY30 only bound to ECs, not to EPCs. LLP2A only bound to EPCs, not to ECs. LXW7 bound well to both EPCs and ECs.

T1 sequence (P06756 31-889 limits assumed): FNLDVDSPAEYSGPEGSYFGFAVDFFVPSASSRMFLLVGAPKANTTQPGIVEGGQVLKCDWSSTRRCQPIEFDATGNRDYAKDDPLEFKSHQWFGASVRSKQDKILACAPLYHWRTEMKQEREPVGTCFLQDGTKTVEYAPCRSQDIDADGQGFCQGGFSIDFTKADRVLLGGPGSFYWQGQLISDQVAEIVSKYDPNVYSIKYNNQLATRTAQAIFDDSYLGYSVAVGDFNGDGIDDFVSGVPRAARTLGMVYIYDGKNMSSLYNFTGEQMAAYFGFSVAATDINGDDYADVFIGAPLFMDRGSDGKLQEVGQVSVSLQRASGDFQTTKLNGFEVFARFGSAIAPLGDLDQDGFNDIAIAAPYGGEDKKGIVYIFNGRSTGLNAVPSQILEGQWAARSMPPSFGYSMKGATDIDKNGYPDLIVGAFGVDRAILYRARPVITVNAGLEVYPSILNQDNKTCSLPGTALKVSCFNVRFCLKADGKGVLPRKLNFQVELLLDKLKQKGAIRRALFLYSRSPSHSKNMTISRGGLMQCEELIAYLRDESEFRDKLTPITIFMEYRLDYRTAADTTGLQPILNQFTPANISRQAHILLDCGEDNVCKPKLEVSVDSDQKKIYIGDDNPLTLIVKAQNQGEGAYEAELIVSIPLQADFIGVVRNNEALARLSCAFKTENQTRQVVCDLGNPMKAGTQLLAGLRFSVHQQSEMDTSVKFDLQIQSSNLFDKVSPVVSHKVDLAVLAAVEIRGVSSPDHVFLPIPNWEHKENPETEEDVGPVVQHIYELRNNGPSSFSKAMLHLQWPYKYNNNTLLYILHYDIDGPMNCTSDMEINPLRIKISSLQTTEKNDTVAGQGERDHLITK
T1 sequence (P06756 891-1048 partner limits assumed): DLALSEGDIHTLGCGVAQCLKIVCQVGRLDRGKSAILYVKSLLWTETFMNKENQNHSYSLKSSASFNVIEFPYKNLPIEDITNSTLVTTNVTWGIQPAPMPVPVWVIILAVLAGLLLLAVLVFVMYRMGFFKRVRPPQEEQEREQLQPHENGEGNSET
T1 sequence (P05106 27-788): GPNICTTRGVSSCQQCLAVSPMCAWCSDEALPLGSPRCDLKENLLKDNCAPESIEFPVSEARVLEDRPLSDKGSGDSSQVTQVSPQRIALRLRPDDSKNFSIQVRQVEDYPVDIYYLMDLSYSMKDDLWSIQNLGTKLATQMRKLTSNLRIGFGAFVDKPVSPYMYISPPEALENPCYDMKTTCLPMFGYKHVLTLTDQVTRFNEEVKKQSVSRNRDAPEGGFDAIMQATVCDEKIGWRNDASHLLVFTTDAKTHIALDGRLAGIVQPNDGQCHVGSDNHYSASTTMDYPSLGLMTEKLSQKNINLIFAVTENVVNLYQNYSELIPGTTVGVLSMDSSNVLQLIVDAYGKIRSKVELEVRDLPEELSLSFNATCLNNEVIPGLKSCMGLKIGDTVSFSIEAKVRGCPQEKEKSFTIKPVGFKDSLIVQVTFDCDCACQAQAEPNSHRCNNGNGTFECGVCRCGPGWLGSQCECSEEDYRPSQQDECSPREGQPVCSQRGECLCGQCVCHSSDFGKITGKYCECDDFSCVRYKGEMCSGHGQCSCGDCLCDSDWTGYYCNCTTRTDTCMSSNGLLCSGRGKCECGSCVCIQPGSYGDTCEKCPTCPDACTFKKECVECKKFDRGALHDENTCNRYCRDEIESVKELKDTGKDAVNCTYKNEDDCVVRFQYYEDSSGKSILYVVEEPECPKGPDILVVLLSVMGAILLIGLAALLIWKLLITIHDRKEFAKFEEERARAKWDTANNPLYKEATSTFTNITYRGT

Row | binding affinity to αvβ3-K562 cells by flow cytometry (integrin αvβ3) | binding to αIIbβ3-K562 cells by flow cytometry (integrin αIIbβ3) | Substance | binding to THP-1 monocytes by flow cytometry (THP-1 monocytes [1]) | binding affinity with platelets by flow cytometry (platelets [2]) | attachment of HCAECs on ligand treated surface (HCAECs [3]) | THP-1 monocyte attachment on ligand treated surface (THP-1 monocytes [4]) | platelet adhesion on ligand treated surface (platelets [5]) | binding of HECFCs to ligand-displaying resin beads (HECFCs) | binding of HCAECs to ligand-displaying resin beads (HCAECs [6])
1 | bound well | very strong binding | GRGD [reference compound] | did not bind to THP-1 monocytes | strong binding to platelets | bound to both LXW7 and GRGD | did not support THP-1 monocyte attachment | significantly higher number of platelets to attach |  | 
2 |  |  | LXY30: integrin-targeting ligand (α3β1), synthesized as in U.S. Pat. No. 9,073,974 (CDGFGPNCR; not fully specified; also: cyclised, D-residues and non-natural residues, places not given here) [reference compound] |  |  |  |  |  | not to HECFCs or to THP-1 monocytes | bound only to HCAECs
